Laboratory results: patent US7435846B2, “Absorption and bioavailability of carotenoids, formulations and applications” (Industrial Organica, S.A. De C.V., priority 2006, dated 2008)

Parameters: species or system human
Conditions: in vivo
Method: Ten (10) healthy non smoking students (ranging in age from 22-27 years), were subjected to the following two treatments:
(A) Four (4) weeks of ingesting one gelatin capsule at their noonday meal, containing 20 mg of crystalline lutein dispersed in soybean oil and after a 12 hours fast (overnight) blood samples were taken early the next morning for plasma analysis.
(B) After a two (2) week interval washout period, the same group of subjects were given, during a period of four (4) weeks, a gelatin capsule containing a micellar dispersion of lutein diacetate (prepared as described in example 3) in soybean oil. Each capsule contained 24.2 mg of lutein diacetate and was ingested at lunch time. After a twelve (12) hour fast, blood samples were collected in the early morning of the next day for plasma analysis.

## lutein diacetate
  ratio of the average absorption of the lutein diacetate divided by the average absorption of the free lutein: 2.81 times
